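Where inhibition never reached the appropriate level, the endpoint shown equals the highest concentration tested. Otherwise, values were interpolated linearly from a five-concentration, 48-hour dose response in 96-well plates. GI50: concentration for 50% inhibition of growth. TGI: total growth inhibition.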
Columns and labels:
Assay in all cases: NCI anticancer screen, dose series, 48 h
UACC-257 melanoma = system: UACC-257 melanoma
MDA-MB-435 = system: MDA-MB-435
NCI-H522 lung = system: NCI-H522 lung
RPMI-8226 leukemia = system: RPMI-8226 leukemia
COLO 205 colon = system: COLO 205 colon
HT29 colon = system: HT29 colon
786-0 renal = system: 786-0 renal
SF-295 CNS = system: SF-295 CNS
OVCAR-8 ovarian = system: OVCAR-8 ovarian
T-47D breast = system: T-47D breast
HS 578T breast = system: HS 578T breast
NCI-H226 lung = system: NCI-H226 lung
A549 NSCLC = system: A549 NSCLC
HCC-2998 colon = system: HCC-2998 colon
NCI-H23 lung = system: NCI-H23 lung
RXF 393 renal = system: RXF 393 renal
K-562 leukemia = system: K-562 leukemia
OVCAR-3 ovarian = system: OVCAR-3 ovarian
EKVX NSCLC = system: EKVX NSCLC
SK-OV-3 ovarian = system: SK-OV-3 ovarian
SW-620 colon = system: SW-620 colon
PC-3 prostate = system: PC-3 prostate
SNB-19 CNS = system: SNB-19 CNS
OVCAR-4 ovarian = system: OVCAR-4 ovarian
TK-10 renal = system: TK-10 renal
U251 CNS = system: U251 CNS
SF-539 CNS = system: SF-539 CNS
MDA-MB-231 breast = system: MDA-MB-231 breast
HCT-116 colon = system: HCT-116 colon
A498 renal = system: A498 renal
SR leukemia = system: SR leukemia
M14 melanoma = system: M14 melanoma
MCF7 breast = system: MCF7 breast
MDA-MB-468 breast = system: MDA-MB-468 breast
CCRF-CEM leukemia = system: CCRF-CEM leukemia
ACHN renal = system: ACHN renal
DU-145 prostate = system: DU-145 prostate
UACC-62 melanoma = system: UACC-62 melanoma
SK-MEL-5 melanoma = system: SK-MEL-5 melanoma
SF-268 CNS = system: SF-268 CNS
BT-549 breast = system: BT-549 breast
HOP-92 NSCLC = system: HOP-92 NSCLC
SN12C renal = system: SN12C renal
NCI-H460 lung = system: NCI-H460 lung
LOX IMVI melanoma = system: LOX IMVI melanoma
NCI/ADR-RES ovarian = system: NCI/ADR-RES ovarian
IGROV1 ovarian = system: IGROV1 ovarian
HCT-15 colon = system: HCT-15 colon
MOLT-4 leukemia = system: MOLT-4 leukemia
MALME-3M melanoma = system: MALME-3M melanoma
OVCAR-5 ovarian = system: OVCAR-5 ovarian
UO-31 renal = system: UO-31 renal
SK-MEL-2 melanoma = system: SK-MEL-2 melanoma
KM12 colon = system: KM12 colon
CAKI-1 renal = system: CAKI-1 renal
HOP-62 NSCLC = system: HOP-62 NSCLC
SK-MEL-28 melanoma = system: SK-MEL-28 melanoma

`COc1ccccc1/C=C/C(=O)c1ccc(OC)c(S(N)(=O)=O)c1` was tested, and the GI50 (UACC-257 melanoma) was 5.96 µM, the TGI (UACC-257 melanoma) was 19.6 µM and the GI50 (MDA-MB-435) was 2.98 µM. The TGI (MDA-MB-435) was 11.5 µM, the GI50 (NCI-H522 lung) was 2.12 µM and the TGI (NCI-H522 lung) was 6.58 µM. For the same compound, the GI50 (RPMI-8226 leukemia) was 2.49 µM, the TGI (RPMI-8226 leukemia) was 7.46 µM and the GI50 (COLO 205 colon) was 3.54 µM. For the same compound, the TGI (COLO 205 colon) was 13.4 µM, the GI50 (HT29 colon) was 3.06 µM and the TGI (HT29 colon) was 10.2 µM. It also gave a GI50 (786-0 renal) of 3.25 µM, a TGI (786-0 renal) of 12.9 µM and a GI50 (SF-295 CNS) of 2.66 µM. The TGI (SF-295 CNS) was 10.6 µM, the GI50 (OVCAR-8 ovarian) was 2.36 µM and the TGI (OVCAR-8 ovarian) was 7.16 µM. For the same compound, the GI50 (T-47D breast) was 3.25 µM, the TGI (T-47D breast) was 12.3 µM and the GI50 (HS 578T breast) was 3.27 µM. The TGI (HS 578T breast) was 20 µM, the GI50 (NCI-H226 lung) was 3.96 µM and the TGI (NCI-H226 lung) was 15.5 µM. For the same compound, the GI50 (A549 NSCLC) was 3.11 µM, the TGI (A549 NSCLC) was 13 µM and the GI50 (HCC-2998 colon) was 2.65 µM. For the same compound, the TGI (HCC-2998 colon) was 12 µM, the GI50 (NCI-H23 lung) was 2.29 µM and the TGI (NCI-H23 lung) was 9.56 µM. It also gave a GI50 (RXF 393 renal) of 2.35 µM, a TGI (RXF 393 renal) of 8.86 µM and a GI50 (K-562 leukemia) of 0.349 µM. The TGI (K-562 leukemia) was 14.6 µM, the GI50 (OVCAR-3 ovarian) was 2.23 µM and the TGI (OVCAR-3 ovarian) was 5.05 µM. The GI50 (EKVX NSCLC) was 3.58 µM, the TGI (EKVX NSCLC) was 14.1 µM and the GI50 (SK-OV-3 ovarian) was 7.25 µM. For the same compound, the TGI (SK-OV-3 ovarian) was 20.4 µM, the GI50 (SW-620 colon) was 2.86 µM and the TGI (SW-620 colon) was 10.8 µM. The GI50 (PC-3 prostate) was 4.81 µM, the TGI (PC-3 prostate) was 18.5 µM and the GI50 (SNB-19 CNS) was 4.02 µM. The TGI (SNB-19 CNS) was 15.3 µM, the GI50 (OVCAR-4 ovarian) was 3.65 µM and the TGI (OVCAR-4 ovarian) was 16.4 µM. It also gave a GI50 (TK-10 renal) of 3.54 µM, a TGI (TK-10 renal) of 13 µM and a GI50 (U251 CNS) of 2.58 µM. It also gave a TGI (U251 CNS) of 10.7 µM, a GI50 (SF-539 CNS) of 2.25 µM and a TGI (SF-539 CNS) of 4.96 µM. For the same compound, the GI50 (MDA-MB-231 breast) was 2.72 µM, the TGI (MDA-MB-231 breast) was 7.47 µM and the GI50 (HCT-116 colon) was 2.49 µM. For the same compound, the TGI (HCT-116 colon) was 9.38 µM, the GI50 (A498 renal) was 10.6 µM and the TGI (A498 renal) was 22.6 µM. For the same compound, the GI50 (SR leukemia) was 1.44 µM, the TGI (SR leukemia) was 6.2 µM and the GI50 (M14 melanoma) was 2.71 µM. It also gave a TGI (M14 melanoma) of 11.8 µM, a GI50 (MCF7 breast) of 2.67 µM and a TGI (MCF7 breast) of 11.3 µM. It also gave a GI50 (MDA-MB-468 breast) of 2.04 µM, a TGI (MDA-MB-468 breast) of 5.91 µM and a GI50 (CCRF-CEM leukemia) of 2.53 µM. It also gave a TGI (CCRF-CEM leukemia) of 6.81 µM, a GI50 (ACHN renal) of 3.38 µM and a TGI (ACHN renal) of 12.4 µM. It also gave a GI50 (DU-145 prostate) of 3.22 µM, a TGI (DU-145 prostate) of 12 µM and a GI50 (UACC-62 melanoma) of 2.95 µM. The TGI (UACC-62 melanoma) was 12.3 µM, the GI50 (SK-MEL-5 melanoma) was 3.85 µM and the TGI (SK-MEL-5 melanoma) was 14.2 µM. The GI50 (SF-268 CNS) was 3.28 µM, the TGI (SF-268 CNS) was 12 µM and the GI50 (BT-549 breast) was 2.58 µM. It also gave a TGI (BT-549 breast) of 8.21 µM, a GI50 (HOP-92 NSCLC) of 2.08 µM and a TGI (HOP-92 NSCLC) of 8.78 µM. The GI50 (SN12C renal) was 2.79 µM, the TGI (SN12C renal) was 10.4 µM and the GI50 (NCI-H460 lung) was 2.09 µM. It also gave a TGI (NCI-H460 lung) of 5.51 µM, a GI50 (LOX IMVI melanoma) of 1.98 µM and a TGI (LOX IMVI melanoma) of 5.27 µM. For the same compound, the GI50 (NCI/ADR-RES ovarian) was 2.29 µM, the TGI (NCI/ADR-RES ovarian) was 6.68 µM and the GI50 (IGROV1 ovarian) was 3.08 µM. It also gave a TGI (IGROV1 ovarian) of 11.5 µM, a GI50 (HCT-15 colon) of 1.99 µM and a TGI (HCT-15 colon) of 10.5 µM. It also gave a GI50 (MOLT-4 leukemia) of 2.4 µM, a TGI (MOLT-4 leukemia) of 8.35 µM and a GI50 (MALME-3M melanoma) of 3.99 µM. For the same compound, the TGI (MALME-3M melanoma) was 16.2 µM, the GI50 (OVCAR-5 ovarian) was 2.2 µM and the TGI (OVCAR-5 ovarian) was 6.14 µM. The GI50 (UO-31 renal) was 2.9 µM, the TGI (UO-31 renal) was 13.4 µM and the GI50 (SK-MEL-2 melanoma) was 10.4 µM. It also gave a TGI (SK-MEL-2 melanoma) of 22.3 µM, a GI50 (KM12 colon) of 2.89 µM and a TGI (KM12 colon) of 10 µM. For the same compound, the GI50 (CAKI-1 renal) was 3.18 µM, the TGI (CAKI-1 renal) was 13 µM and the GI50 (HOP-62 NSCLC) was 2.88 µM. It also gave a TGI (HOP-62 NSCLC) of 10.3 µM, a GI50 (SK-MEL-28 melanoma) of 4.49 µM and a TGI (SK-MEL-28 melanoma) of 15.8 µM.

From PubChem BioAssay (NCI)
